From patent US20190029975A1, “TOCOPHEROL AND TOCOTRIENOL QUINONE DERIVATIVES FOR INCREASING THIOSULFATE LEVELS OR DECREASING HYDROGEN SULFIDE LEVELS” (BIOELECTRON TECHNOLOGY CORPORATION, priority 2016, published 2019)

Assays:
[1] = tested on: mouse striatal cells (Q7); assay: Thiosulfate production in EPI-743 treated ATG-stressed Q7 cells; type: cell-based; details: for effect on cysteine levels: Q7 cells, 10 μM ATG or 100 nM EPI-743; for Cysteine Calculated Concentration / Thiosulfate Peak Area: 100 nM 743
Procedure: Conditionally immortalized wild-type mouse striatal cells (Q7, passage #45) were seeded at 300,000 cells per well in 6-well plates containing 3 mL/well of DMEM (High Glucose) containing 10% FBS, penicillin/streptomycin, and 400 μg/mL G418. After an overnight incubation at 33C, the cells were treated for 4-5 hours with either EPI-743 (100 nM final concentration) or DMSO vehicle (1% final concentration). Aurothioglucose (final concentration 10 μM) was added prior to an 18-hour treatment period. Cells were washed 1× with Hanks' buffered saline solution (HBSS), counted, and then resuspended in monobromobimane capping solution.
Cysteine and thiosulfate levels are shown below. Aurothioglucose (ATG) is an inhibitor of thioredoxin reductase-1 and has been repeatedly used as a tool compound to increase oxidative stress. […] Cysteine levels were unaffected by ATG or EPI-743 treatment.

[2] = Plasma thiosulfate in Leigh Syndrome patients treated with EPI-743 (EPI743-12-002 Leigh Trial); type: in vivo, human
Procedure: As part of the Edison EPI743-12-002 Leigh Trial, 17 Leigh Syndrome patients were treated with EPI-743 (15 mg/kg up to 200 mg three times a day) for 12 months. An additional 14 Leigh Syndrome patients received placebo for the first six months, and were randomized to either 5 or 15 mg/kg up to 200 mg three times a day EPI-743 for the subsequent six months.
Plasma thiosulfate concentrations were measured at various time points, over a 12 month period, for patients on drug and placebo. Plasma samples were collected from Leigh Syndrome patients, and the samples processed according to the procedure described in Example 2. […]
(§1) The samples were analyzed by measuring the absolute concentration of H2S, thiosulfate, and glutathione persulfide using 6-point calibration curves. […]
(§2) An API mass spectrometer (AB6500 Qtrap) coupled to a high performance liquid chromatograph (Eksigent MicroLC 200 Plus) was used to quantify H2S, thiosulfate, and glutathione persulfide and their internal standards from all biological fluids and calibrants. […]
(§3) Bromobimane (BB) and Bromobimane internal standard (B-IS) were injected before each calibration curve. […] Statistical calculations and analytical run acceptance were determined based on criteria set forth in the FDA/EMA guidance where applicable. Fundamental parameters such as accuracy, precision, selectivity, sensitivity, reproducibility, and stability were monitored.

[3] = tested on: SQOR products (thiosulfate, glutathione persulfide); assay: Correlation of plasma H2S with the SQOR products thiosulfate and glutathione persulfide in Leigh Syndrome patients; type: in vivo, human; details: all subjects at all time points
Procedure: A quantitative method for the analysis of H2S, thiosulfate, and glutathione persulfide in biological matrices via liquid chromatography coupled to atmospheric pressure ionization (API) tandem mass spectrometry (LC-MS/MS) is provided.
Patient plasma samples were collected with informed consent from the patients described in Example 1. The sulfur containing compounds were derivatized with bromo bimane to stabilize the samples for measurement. Samples were stored at −80° C. and shipped for analysis to Edison under dry ice.
as §1, §2
as §3, with “monitored. […]” for “monitored.”

Compound | effect on cysteine levels [1] | increase in mean plasma thiosulfate ([2]; Leigh Syndrome patients, across all time points over 12 months, versus baseline, placebo virtually no change) | mean plasma thiosulfate ([2]; subjects treated with EPI-743, across all time points, baseline 0.21 μM) | H2S/glutathione persulfide ratio versus untreated patients [3] | H2S/thiosulfate ratio versus untreated patients [3] | Cysteine Calculated Concentration ([1]; 10 μM ATG, 1% DMSO control 0.272) | Thiosulfate Peak Area ([1]; 10 μM ATG, 1% DMSO control 3466) | increase in thiosulfate, EPI-743 treated versus untreated cells ([1]; ATG-stressed cells (10 μM ATG), 100 nM EPI-743) | Cysteine Calculated Concentration ([1]; No Stress, 1% DMSO control 0.251) | Thiosulfate Peak Area ([1]; No Stress, 1% DMSO control 2881)
OC[C@H]1O[C@H]([S-])[C@H](O)[C@@H](O)[C@@H]1O.[Au+] [ATG, Aurothioglucose, reference compound] | unaffected | – | – | – | – | – | – | – | – | –
CC(C)=CCC/C(C)=C/CC/C(C)=C/CC[C@@](C)(O)CCC1=C(C)C(=O)C(C)=C(C)C1=O [EPI-743] | unaffected | greater than 100% | 0.54 µM | lower | lower | 0.281 µM | 37903 | approximately 10 fold | 0.264 µM | 3656
